Data: patent US11174268B2, “Benzenesulfonamide compouds and their use as therapeutic agents” (Xenon Pharmaceuticals Inc., priority 2016, dated 2021)
pIC50: −log10 of the molar value. Counter-ions that a name gives are not always drawn. Like-named read-outs stand apart in the source and are kept apart here.

Key:
NaV1.6 = NaV1.6 (Homo sapiens (Human), UniProt Q9UQD0); test: Sodium Influx Assay (Flux), NaV1.6; type: cell-based; conditions: Trex HEK293 cells, ANG2 dye, inactivated state;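 note: Tetracycline-induced cells, compounds applied for one hour at room temperature with modulators holding channels open, IC50 from percent inhibition of sodium influx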
NaV1.1 = NaV1.1 (Homo sapiens (Human), UniProt P35498); test: Sodium Influx Assay (Flux), NaV1.1; type: cell-based; conditions: Trex HEK293 cells, ANG2 dye, inactivated state;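 note: channels co-expressed with human β1 subunit and held open by modulators, cells exposed to compounds for one hour at room temperature, IC50 from percent inhibition of influx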
NaV1.5 = NaV1.5 (Homo sapiens (Human), UniProt Q14524); test: Sodium Influx Assay (Flux), NaV1.5
[1] = read-out: Flux NaV1.5 IC50, Trex HEK293 cells, ANG2 dye, inactivated state

Chain of NaV1.5 (Q14524 other isoform, or with tags, fused parts or gaps): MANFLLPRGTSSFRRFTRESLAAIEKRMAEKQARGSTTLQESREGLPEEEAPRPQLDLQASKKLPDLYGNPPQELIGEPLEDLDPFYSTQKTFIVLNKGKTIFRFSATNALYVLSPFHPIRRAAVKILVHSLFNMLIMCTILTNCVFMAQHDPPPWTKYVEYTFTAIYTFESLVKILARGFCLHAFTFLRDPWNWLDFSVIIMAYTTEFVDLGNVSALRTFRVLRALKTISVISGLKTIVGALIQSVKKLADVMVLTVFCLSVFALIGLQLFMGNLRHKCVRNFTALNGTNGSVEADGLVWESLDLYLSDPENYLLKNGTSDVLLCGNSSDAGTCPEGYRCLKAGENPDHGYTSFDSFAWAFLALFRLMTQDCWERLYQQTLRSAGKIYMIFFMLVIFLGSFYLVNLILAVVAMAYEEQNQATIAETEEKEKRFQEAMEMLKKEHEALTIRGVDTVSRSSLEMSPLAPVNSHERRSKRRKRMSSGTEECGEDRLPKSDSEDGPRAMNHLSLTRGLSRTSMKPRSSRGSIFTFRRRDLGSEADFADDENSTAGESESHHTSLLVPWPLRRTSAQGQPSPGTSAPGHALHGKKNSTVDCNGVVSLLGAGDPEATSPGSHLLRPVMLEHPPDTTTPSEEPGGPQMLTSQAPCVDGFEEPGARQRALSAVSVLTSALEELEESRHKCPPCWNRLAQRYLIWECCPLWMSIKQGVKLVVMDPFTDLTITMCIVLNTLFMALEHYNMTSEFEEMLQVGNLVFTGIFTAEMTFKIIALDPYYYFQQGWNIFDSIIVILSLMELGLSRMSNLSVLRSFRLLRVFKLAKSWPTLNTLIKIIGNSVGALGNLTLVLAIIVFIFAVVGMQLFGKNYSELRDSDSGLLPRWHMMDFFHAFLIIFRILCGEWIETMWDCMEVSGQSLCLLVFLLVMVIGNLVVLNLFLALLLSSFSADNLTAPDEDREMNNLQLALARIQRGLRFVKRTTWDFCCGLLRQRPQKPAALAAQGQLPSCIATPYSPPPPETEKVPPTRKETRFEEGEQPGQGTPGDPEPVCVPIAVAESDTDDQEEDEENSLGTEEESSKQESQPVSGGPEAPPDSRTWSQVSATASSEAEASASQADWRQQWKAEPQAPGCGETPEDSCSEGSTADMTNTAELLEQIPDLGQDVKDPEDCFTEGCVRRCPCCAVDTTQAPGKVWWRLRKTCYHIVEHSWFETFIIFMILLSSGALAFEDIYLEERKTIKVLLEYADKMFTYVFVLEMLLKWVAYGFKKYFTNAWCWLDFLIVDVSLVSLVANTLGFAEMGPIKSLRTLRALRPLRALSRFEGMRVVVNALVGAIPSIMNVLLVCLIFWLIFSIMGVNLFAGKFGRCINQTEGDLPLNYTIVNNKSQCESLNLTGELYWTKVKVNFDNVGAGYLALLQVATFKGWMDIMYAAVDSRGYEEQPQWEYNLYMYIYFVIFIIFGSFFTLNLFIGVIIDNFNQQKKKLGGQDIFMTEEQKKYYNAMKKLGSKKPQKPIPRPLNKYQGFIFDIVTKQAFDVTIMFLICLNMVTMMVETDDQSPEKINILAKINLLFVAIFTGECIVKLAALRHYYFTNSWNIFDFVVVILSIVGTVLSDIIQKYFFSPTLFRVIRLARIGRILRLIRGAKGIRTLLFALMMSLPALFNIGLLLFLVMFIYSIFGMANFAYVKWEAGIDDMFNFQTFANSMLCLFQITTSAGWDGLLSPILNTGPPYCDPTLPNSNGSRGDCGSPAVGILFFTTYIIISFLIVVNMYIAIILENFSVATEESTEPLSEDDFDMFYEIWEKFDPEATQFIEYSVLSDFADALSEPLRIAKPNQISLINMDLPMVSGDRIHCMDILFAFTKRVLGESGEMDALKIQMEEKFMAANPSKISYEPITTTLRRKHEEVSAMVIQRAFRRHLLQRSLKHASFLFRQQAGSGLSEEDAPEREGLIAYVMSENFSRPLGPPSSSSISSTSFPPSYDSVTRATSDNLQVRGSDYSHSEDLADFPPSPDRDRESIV

pIC50 (NaV1.6) | pIC50 (NaV1.1) | Structure (SMILES) | pIC50 (NaV1.5; [1]) | pIC50 (NaV1.5)
5.37 | 5.43 | C[C@H](Nc1cc(F)c(S(=O)(=O)Nc2cscn2)cc1Cl)c1cc(F)cc(F)c1 [Example 223, (S)-5-chloro-4-((1-(3,5-difluorophenyl)ethyl)amino)-2-fluoro-N-(thiazol-4-yl)benzenesulfonamide] |  | 4.91
6.73 | 4.59 | O=S(=O)(Nc1cscn1)c1c(F)cc(NCc2cccc(F)c2CN2CCC2)cc1F [Example 196, 4-((2-(azetidin-1-ylmethyl)-3-fluorobenzyl)amino)-2,6-difluoro-N-(thiazol-4-yl)benzenesulfonamide 2,2,2-trifluoroacetate] | 4.52 | 
5.47 | 5.16 | C[C@H](Nc1cc(F)c(S(=O)(=O)Nc2cscn2)cc1Cl)c1cc(F)c(F)cc1F [Example 286, (S)-5-chloro-2-fluoro-N-(thiazol-4-yl)-4-((1-(2,4,5-trifluorophenyl)ethyl)amino)benzenesulfonamide] | 5.06 | 
5.51 | 4.52 | Cc1cc(NS(=O)(=O)c2c(F)cc(NCc3c(F)ccc(F)c3CN3CCC3)cc2F)no1 [Example 216, 4-((2-(azetidin-1-ylmethyl)-3,6-difluorobenzyl)amino)-2,6-difluoro-N-(5-methylisoxazol-3-yl)benzenesulfonamide 2,2,2-trifluoroacetate] | 4.52 | 
6.49 | 4.87 | COC(C)(C)C1CN(Cc2ccccc2CNc2cc(F)c(S(=O)(=O)Nc3cscn3)c(F)c2)C1 [Example 214, 2,6-difluoro-4-((2-((3-(2-methoxypropan-2-yl)azetidin-1-yl)methyl)benzyl)amino)-N-(thiazol-4-yl)benzenesulfonamide 2,2,2-trifluoroacetate] | 4.79 | 
5.71 | 4.88 | COCc1ccc(F)c([C@H](C)Nc2cc(F)c(S(=O)(=O)Nc3cscn3)c(F)c2)c1 [Example 228, (S)-2,6-difluoro-4-((1-(2-fluoro-5-(methoxymethyl)phenyl)ethyl)amino)-N-(thiazol-4-yl)benzenesulfonamide] | 4.56 | 

The next lines start with the compound.

Structure (SMILES) | pIC50 (NaV1.6) | pIC50 (NaV1.1) | pIC50 (NaV1.5; [1]) | pIC50 (NaV1.5)
C[C@H](Nc1cc(F)c(S(=O)(=O)Nc2nccs2)cc1Cl)c1cccc(Cl)c1 [Example 50, (S)-5-chloro-4-((1-(3-chlorophenyl)ethyl)amino)-2-fluoro-N-(thiazol-2-yl)benzenesulfonamide] | 6.77 | 5.89 | 5.22 | 
CCc1cccc(CN2CCC2)c1CNc1cc(F)c(S(=O)(=O)Nc2cscn2)c(F)c1 [Example 210, 4-((2-(azetidin-1-ylmethyl)-6-ethylbenzyl)amino)-2,6-difluoro-N-(thiazol-4-yl)benzenesulfonamide 2,2,2-trifluoroacetate] | 6.38 | 5.43 | 4.57 | 
C[C@H](Nc1cc(F)c(S(=O)(=O)Nc2cscn2)cc1Cl)c1cc(C#N)ccc1F [Example 229, (S)-5-chloro-4-((1-(5-cyano-2-fluorophenyl)ethyl)amino)-2-fluoro-N-(thiazol-4-yl)benzenesulfonamide] | 6.02 | 4.52 | 4.52 | 
O=S(=O)(Nc1cscn1)c1cc(Cl)c(NCc2cc(CCN3CCC3)ccc2F)cc1F [Example 262, 4-((5-(2-(azetidin-1-yl)ethyl)-2-fluorobenzyl)amino)-5-chloro-2-fluoro-N-(thiazol-4-yl)benzenesulfonamide formate] | 5.85 | 5.08 | 5.14 | 
O=S(=O)(Nc1cscn1)c1cc(Cl)c(NCc2c(F)cccc2CN2CCOCC2)cc1F [Example 250, 5-chloro-2-fluoro-4-((2-fluoro-6-(morpholinomethyl)benzyl)amino)-N-(thiazol-4-yl)benzenesulfonamide] | 5.04 | 4.63 | 4.52 | 
